Reference: PMC10272180, “Ancient medicinal plant rosemary contains a highly efficacious and isoform-selective KCNQ potassium channel opener” (Communications Biology, 2023)

Legend:
KCNQ3*-L198F = KCNQ3*-L198F (Homo sapiens, UniProt O43525, A315T/L198F); experiment: TEVC of mutant KCNQ3*-L198F in oocytes; assay type: cell-based
From the text: (§1) We generated cRNA transcripts encoding human KCNQ1, 2, 3, and 5 (wild-type and mutant) by in vitro transcription using the mMessage mMachine kit (Thermo Fisher Scientific, Waltham, MA, USA) according to manufacturer’s instructions, after vector linearization, from cDNA sub-cloned into expression vectors (pTLNx and pXOOM) incorporating Xenopus laevis β-globin 5’ and 3’ UTRs flanking the coding region to enhance translation and cRNA stability. Mutant KCNQ cDNAs were generated by Genscript (Piscataway, NJ, USA) and cRNAs made as above. We injected defolliculated stage V and VI Xenopus laevis oocytes (Xenoocyte, Dexter, MI, USA) with KCNQ cRNAs (2–10 ng) and incubated the oocytes at 16 °C in ND96 oocyte storage solution containing penicillin and streptomycin, with daily washing, for 2–4 days prior to two-electrode voltage-clamp (TEVC) recording.
(§2) We performed TEVC at room temperature using an OC-725C amplifier (Warner Instruments, Hamden, CT, USA) and pClamp10 software (Molecular Devices, Sunnyvale, CA, USA) 2–4 days after cRNA injection. We placed oocytes in a small-volume oocyte bath (Warner) and viewed them with a dissection microscope for cellular electrophysiology. We sourced chemicals from Sigma-Aldrich (St. Louis, MO, USA) and Combi-Blocks (San Diego, CA, USA). We studied effects of Salvia rosmarinus extracts and of compounds, solubilized directly in bath solution (in mM): 96 NaCl, 4 KCl, 1 MgCl2, 1 CaCl2, 10 HEPES (pH 7.6). We introduced extracts or compounds into the oocyte recording bath by gravity perfusion at a constant flow of 1 ml per minute for 3 min prior to recording. Pipettes were of 1-2 MΩ resistance when filled with 3 M KCl. […] We analyzed data using Clampfit (Molecular Devices) and Graphpad Prism software (GraphPad, San Diego, CA, USA), stating values as mean ± SEM. We plotted raw or normalized tail currents versus prepulse voltage and fitted with a single Boltzmann function:1 g=(A1−A2)/1+exp[V1/2−V/Vs]y+A2 where g is the normalized tail conductance, A1 is the initial value at -∞, A2 is the final value at +∞, V1/2 is the half-maximal voltage of activation and Vs the slope factor. We fitted activation and deactivation kinetics with single exponential functions.

KCNQ3*-R242A = KCNQ3*-R242A (Homo sapiens, UniProt O43525, A315T/R242A); experiment: TEVC of mutant KCNQ3*-R242A in oocytes; assay type: cell-based
From the text: as §1
(§3) We performed TEVC at room temperature using an OC-725C amplifier (Warner Instruments, Hamden, CT, USA) and pClamp10 software (Molecular Devices, Sunnyvale, CA, USA) 2–4 days after cRNA injection. We placed oocytes in a small-volume oocyte bath (Warner) and viewed them with a dissection microscope for cellular electrophysiology. We sourced chemicals from Sigma-Aldrich (St. Louis, MO, USA) and Combi-Blocks (San Diego, CA, USA). We studied effects of Salvia rosmarinus extracts and of compounds, solubilized directly in bath solution (in mM): 96 NaCl, 4 KCl, 1 MgCl2, 1 CaCl2, 10 HEPES (pH 7.6). We introduced extracts or compounds into the oocyte recording bath by gravity perfusion at a constant flow of 1 ml per minute for 3 min prior to recording. Pipettes were of 1-2 MΩ resistance when filled with 3 M KCl. We recorded currents in response to voltage pulses between −120 mV and +40 mV at 10 mV intervals from a holding potential of −80 mV, to yield current-voltage relationships and examine activation kinetics. We analyzed data using Clampfit (Molecular Devices) and Graphpad Prism software (GraphPad, San Diego, CA, USA), stating values as mean ± SEM. We plotted raw or normalized tail currents versus prepulse voltage and fitted with a single Boltzmann function:1 g=(A1−A2)/1+exp[V1/2−V/Vs]y+A2 where g is the normalized tail conductance, A1 is the initial value at -∞, A2 is the final value at +∞, V1/2 is the half-maximal voltage of activation and Vs the slope factor. We fitted activation and deactivation kinetics with single exponential functions.

KCNQ3*-P211A = KCNQ3*-P211A (Homo sapiens, UniProt O43525, A315T/P211A); experiment: TEVC of mutant KCNQ3*-P211A in oocytes; assay type: cell-based
From the text: as §1, §3

KCNQ3*-W265L = KCNQ3*-W265L (Homo sapiens, UniProt O43525, A315T/W265L); experiment: TEVC of mutant KCNQ3*-W265L in oocytes; assay type: cell-based
From the text: as §1, §2

KCNQ2/3/5 = biological target: T1, KCNQ2/3/5 (Homo sapiens, UniProt O43525+O43526+Q9NR82); experiment: TEVC of KCNQ2/3/5 heteromers expressed in Xenopus laevis oocytes; assay type: cell-based
T1 construct: expressed in transfected cells; host or cells: Xenopus laevis oocytes co-injected with cRNAs (1:1:1 according to the authors' reply)
From the text: as §1, §3

KCNQ2 = KCNQ2 (Homo sapiens, UniProt O43526); experiment: TEVC of KCNQ2 homomers expressed in Xenopus laevis oocytes; assay type: cell-based
From the text: as §1, §2

KCNQ3*-G245A = KCNQ3*-G245A (Homo sapiens, UniProt O43525, A315T/G245A); experiment: TEVC of mutant KCNQ3*-G245A in oocytes; assay type: cell-based; details: 100 µM
From the text: as §1
We performed TEVC at room temperature using an OC-725C amplifier (Warner Instruments, Hamden, CT, USA) and pClamp10 software (Molecular Devices, Sunnyvale, CA, USA) 2–4 days after cRNA injection. […] We recorded currents in response to voltage pulses between −120 mV and +40 mV at 10 mV intervals from a holding potential of −80 mV, to yield current-voltage relationships and examine activation kinetics. We analyzed data using Clampfit (Molecular Devices) and Graphpad Prism software (GraphPad, San Diego, CA, USA), stating values as mean ± SEM. […]

[1] = cited from earlier work

For `CC(C)c1cc2c(c(O)c1O)[C@@]1(C(=O)O)CCCC(C)(C)[C@@H]1CC2` [Carnosic acid, carnosic acid], the “V0.5 Normalized tail current” value (KCNQ3*-L198F; 0.1 µM) was -58.22 ± 0.59 mV, the “V0.5 Normalized tail current” value (KCNQ3*-L198F; 1 µM) was -62.90 ± 0.79 mV and the “V0.5 Normalized tail current” value (KCNQ3*-L198F; 3 µM) was -73.56 ± 0.79 mV. For the same compound, the “V0.5 Normalized tail current” value (KCNQ3*-L198F; 10 µM) was -91.66 ± 1.99 mV, the “V0.5 Normalized tail current” value (KCNQ3*-L198F; 30 µM) was -116.6 ± 3.44 mV and the EC50 (KCNQ3*-L198F; EC50 EM) was 1.15 ± 0.12 µM. For the same compound, the EC50 (KCNQ3*-L198F; EC50 V0.5 Activation) was 6.28 ± 0.08 µM, the “carnosic acid efficacy and potency compared with KCNQ3*” value (KCNQ3*-L198F; dose-response) was “very similarly” and the EC50 (KCNQ3*-R242A) was 8.31 ± 0.14 µM. The “V0.5 Normalized tail current” value (KCNQ3*-R242A; 0.1 µM) was -21.11 ± 0.68 mV, the “V0.5 Normalized tail current” value (KCNQ3*-R242A; 1 µM) was -24.52 ± 0.42 mV and the “V0.5 Normalized tail current” value (KCNQ3*-R242A; 3 µM) was -27.59 ± 0.38 mV. The “V0.5 Normalized tail current” value (KCNQ3*-R242A; 10 µM) was -30.42 ± 0.37 mV, the “V0.5 Normalized tail current” value (KCNQ3*-R242A; 30 µM) was -35.30 ± 0.41 mV and the Slope (KCNQ3*-R242A; 100 µM) was 8.88 ± 0.59 mV. For the same compound, the “efficacy in terms of ΔV0.5act versus KCNQ3*” value (KCNQ3*-R242A; dose-response) was “halved”, the “V0.5 Normalized tail current” value (KCNQ3*-P211A; 0.1 µM) was -55.16 ± 1.00 mV and the “V0.5 Normalized tail current” value (KCNQ3*-P211A; 1 µM) was -59.20 ± 1.17 mV. For the same compound, the “V0.5 Normalized tail current” value (KCNQ3*-P211A; 3 µM) was -61.55 ± 1.44 mV, the “V0.5 Normalized tail current” value (KCNQ3*-P211A; 10 µM) was -78.35 ± 1.93 mV and the “V0.5 Normalized tail current” value (KCNQ3*-P211A; 30 µM) was -98.23 ± 4.44 mV. The “V0.5 Normalized tail current” value (KCNQ3*-P211A; 100 µM) was -110.7 ± 3.83 mV, the EC50 (KCNQ3*-P211A; EC50 EM) was 3.21 ± 0.21 µM and the EC50 (KCNQ3*-P211A; EC50 V0.5 Activation) was 15.25 ± 0.07 µM. For the same compound, the “carnosic acid efficacy and potency compared with KCNQ3*” value (KCNQ3*-P211A; dose-response) was “very similarly”, the “V0.5 Normalized tail current” value (KCNQ3*-W265L; 0.1 µM) was -75.60 ± 1.02 mV and the “V0.5 Normalized tail current” value (KCNQ3*-W265L; 1 µM) was -86.19 ± 1.09 mV. The “V0.5 Normalized tail current” value (KCNQ3*-W265L; 3 µM) was -96.66 ± 1.64 mV, the “V0.5 Normalized tail current” value (KCNQ3*-W265L; 10 µM) was -105.3 ± 2.56 mV and the “V0.5 Normalized tail current” value (KCNQ3*-W265L; 100 µM) was -146.0 ± 1.92 mV. The EC50 (KCNQ3*-W265L; EC50 EM) was 0.14 ± 0.03 µM, the EC50 (KCNQ3*-W265L; EC50 V0.5 Activation) was 2.11 ± 0.09 µM and the “sensitivity in terms of potency versus KCNQ3*” value (KCNQ3*-W265L; dose-response) was “approximately fivefold”. For the same compound, the “V0.5 Normalized tail current” value (KCNQ2/3/5; 0.1 µM) was -43.51 ± 1.17 mV, the “V0.5 Normalized tail current” value (KCNQ2/3/5; 1 µM) was -47.43 ± 0.94 mV and the “V0.5 Normalized tail current” value (KCNQ2/3/5; 3 µM) was -49.89 ± 0.88 mV. For the same compound, the “V0.5 Normalized tail current” value (KCNQ2/3/5; 10 µM) was -52.31 ± 0.77 mV, the “V0.5 Normalized tail current” value (KCNQ2/3/5; 30 µM) was -54.68 ± 0.89 mV and the “V0.5 Normalized tail current” value (KCNQ2/3/5; 100 µM) was -57.42 ± 1.03 mV. For the same compound, the EC50 (KCNQ2/3/5; EC50 EM) was 3.13 ± 0.44 µM, the EC50 (KCNQ2/3/5; EC50 V0.5 Activation) was 2.02 ± 0.44 µM and the “V0.5 Normalized tail current” value (KCNQ2; 0.1 µM) was -41.03 ± 1.43 mV. The “V0.5 Normalized tail current” value (KCNQ2; 1 µM) was -44.14 ± 0.95 mV, the “V0.5 Normalized tail current” value (KCNQ2; 3 µM) was -46.74 ± 0.85 mV and the “V0.5 Normalized tail current” value (KCNQ2; 10 µM) was -45.67 ± 0.73 mV. The “V0.5 Normalized tail current” value (KCNQ2; 30 µM) was -45.20 ± 0.88 mV, the “V0.5 Normalized tail current” value (KCNQ2; 100 µM) was -43.10 ± 0.64 mV and the “activity across the concentration range tested” value (KCNQ2; 0.1-100 µM) was “only weakly active”. The Slope (KCNQ3*-G245A) was 12.79 ± 4.65 mV, the “V0.5 Normalized tail current” value (KCNQ3*-G245A) was -129.4 ± 1.24 mV and the “blood brain barrier crossing” value [1] was “crosses the blood brain barrier”.
